Laboratory results taken from patent US7179823B1, “5-membered n-heterocyclic compounds with hypoglycemic and hypolipidemic activity” (Takeda Pharmaceutical Company Limited, priority 1999, dated 2007).

Row | Compound | melting point
1 | CCOC(=O)/C=C/c1cn(Cc2ccc(OCc3ccccc3)cc2)nc1-c1ccccc1 [Example 284, ethyl (E)-3-[1-(4-benzyloxybenzyl)-3-phenyl-1H-pyrazol-4-yl]propenoate] | 94 to 95 °C
2 | Cc1oc(-c2ccccc2)nc1COc1ccc(Cn2cc(CCCCC(=O)O)c(-c3ccccc3)n2)cc1 [Example 97, 5-[1-[4-(5-methyl-2-phenyl-4-oxazolylmethoxy)benzyl]-3-phenyl-1H-pyrazol-4-yl]pentanoic acid] | 109 to 110 °C
3 | CCOc1nn(Cc2ccc(OCc3ccc4ccccc4n3)nc2)cc1CCC(=O)O [Example 252, 3-[3-ethoxy-1-[6-(2-quinolylmethoxy)-3-pyridylmethyl]-1H-pyrazol-4-yl]propionic acid] | 133 to 134 °C
4 | CCOC(=O)CCc1cn(Cc2ccc(OCc3cn4c(-c5ccccc5)cccc4n3)cc2)nc1OCC [Example 231, ethyl 3-[3-ethoxy-1-[4-(5-phenylimidazo[1,2-a]pyridin-2-ylmethoxy)benzyl]-1H-pyrazol-4-yl]propionate] | 104 to 105 °C
5 | Cc1oc(-c2ccccc2)nc1COc1ccc(Cn2cc(CCC(=O)O)c(-c3ccc(C(F)(F)F)cc3)n2)cc1 [Example 98, 3-[1-[4-(5-methyl-2-phenyl-4-oxazolylmethoxy)benzyl]-3-(4-trifluoromethylphenyl)-1H-pyrazol-4-yl]propionic acid] | 149 to 150 °C
6 | Cc1oc(-c2ccco2)nc1COc1ccc(Cn2cc(CCC(=O)O)c(-c3ccc(F)cc3)n2)cc1 [Example 105, 3-[3-(4-fluorophenyl)-1-[4-[2-(2-furyl)-5-methyl-4-oxazolylmethoxy)benzyl]-1H-pyrazol-4-yl]propionic acid] | 125 to 126 °C
7 | CCOC(=O)CCc1cn(Cc2ccc(OC)c(OCc3nc(-c4ccccc4)oc3C)c2)nc1OCC [Example 214, ethyl 3-[3-ethoxy-1-[4-methoxy-3-(5-methyl-2-phenyl-4-oxazolylmethoxy)benzyl]-1H-pyrazol-4-yl]propionate] | 109 to 110 °C
8 | Cc1oc(-c2ccco2)nc1COc1ccc(Cn2cc(CC(=O)O)c(-c3ccccc3)n2)cn1 [Example 316, [1-[6-[2-(2-furyl)-5-methyl-4-oxazolylmethoxy]-3-pyridylmethyl]-3-phenyl-1H-pyrazol-4-yl]acetic acid] | 135 to 136 °C
9 | CCOC(=O)Cc1cn(Cc2ccc(OCc3csc(-c4ccccc4)n3)nc2)nc1-c1ccccc1 [Example 309, ethyl(3-phenyl-1-[6-(2-phenyl-4-thiazolylmethoxy)-3-pyridylmethyl]-1H-pyrazol-4-yl]acetate] | 75 to 76 °C
10 | CCOc1cc(Cn2cc(CCC(=O)O)c(OCC)n2)ccc1OCc1nc(-c2ccccc2)oc1C [Example 217, 3-[3-ethoxy-1-[3-ethoxy-4-(5-methyl-2-phenyl-4-oxazolylmethoxy)benzyl]-1H-pyrazol-4-yl]propionic acid] | 105 to 106 °C
11 | CCOc1nn(Cc2ccc(OC)c(OCc3nc(-c4ccccc4)oc3C)c2)cc1CCC(=O)O [Example 215, 3-[3-ethoxy-1-[4-methoxy-3-(5-methyl-2-phenyl-4-oxazolylmethoxy)benzyl]-1H-pyrazol-4-yl]propionic acid] | 136 to 137 °C
12 | Cc1oc(-c2ccccc2)nc1COc1ccc(Cn2cc(CCCC(=O)O)c(-c3ccccc3)n2)cc1 [Example 96, 4-[1-[4-(5-methyl-2-phenyl-4-oxazolylmethoxy)benzyl]-3-phenyl-1H-pyrazole-4-yl]butanoic acid] | 118 to 119 °C
13 | CCOC(=O)c1cn(Cc2ccc(Oc3ccccc3)cc2)nc1OCc1ccc(OCc2nc(-c3ccccc3)oc2C)c(OC)c1 [Example 324, ethyl 3-[3-methoxy-4-(5-methyl-2-phenyl-4-oxazolylmethoxy)benzyloxy]-1-(4-phenoxybenzyl)-1H-pyrazole-4-carboxylate] | 127 to 128 °C
14 | O=C(O)Cc1cn(Cc2ccc(OCc3csc(-c4ccccc4)n3)nc2)nc1-c1ccccc1 [Example 310, [3-phenyl-1-[6-(2-phenyl-4-thiazolylmethoxy)-3-pyridylmethyl]-1H-pyrazol-4-yl]acetic acid] | 118 to 119 °C

More lines, now with the values ahead:

Row | melting point | Compound
15 | 127 to 128 °C | O=C(O)CCc1cn(Cc2ccc(OCc3cccs3)cc2)cc1-c1ccccc1 [Example 20, 3-[4-phenyl-1-[4-(2-thienylmethoxy)benzyl]-3-pyrrolyl]propionic acid]
16 | 158 to 159 °C | O=C(O)CCc1cn(Cc2ccc3cc(OCc4cccnc4)ccc3c2)cc1-c1ccccc1 [Example 58, 3-[4-phenyl-1-[6-(3-pyridylmethoxy)-2-naphthylmethyl]-3-pyrrolyl]propionic acid]
17 | 154 to 155 °C | Cc1oc(-c2ccccc2)nc1COc1ccc(Cn2cc(/C=C/C(=O)O)c(-c3ccccc3)c2)cc1 [Example 5, (E)-3-[1-[4-(5-methyl-2-phenyl-4-oxazolylmethoxy)benzyl]-4-phenyl-3-pyrrolyl]propenoic acid]
18 | 95 to 96 °C | CCOc1nn(Cc2ccc(OCc3cccc(-c4ccccc4)n3)cc2)cc1CCC(=O)O [Example 246, 3-[3-ethoxy-1-[4-(6-phenyl-2-pyridylmethoxy)benzyl]-1H-pyrazol-4-yl]propionic acid]
19 | 120 to 121 °C | CCOc1nn(Cc2ccc(OCc3nc(-c4ccccc4)ccc3Cl)cc2)cc1CCC(=O)O [Example 244, 3-[1-[4-(3-chloro-6-phenyl-2-pyridylmethoxy)benzyl]-3-ethoxy-1H-pyrazol-4-yl]propionic acid]
20 | 149 to 150 °C | O=C(O)CCc1cn(Cc2ccc(OCc3csc(-c4ccncc4)n3)cc2)cc1-c1ccccc1 [Example 34, 3-[4-phenyl-1-[4-[2-(4-pyridyl)-4-thiazolylmethoxy)benzyl]-3-pyrrolyl]propionic acid]
21 | 140 to 141 °C | CCOc1nn(Cc2ccc(OCc3ccc(-c4ccccc4)nc3)cc2)cc1CCC(=O)O [Example 230, 3-[3-ethoxy-1-[4-(6-phenyl-3-pyridylmethoxy)benzyl]-1H-pyrazol-4-yl]propionic acid]
22 | 155 to 156 °C | O=C(O)CCc1cn(Cc2ccc(OCCn3ncc4ccccc4c3=O)cc2)nc1-c1ccccc1 [Example 286, 3-[1-[4-[2-[1-oxophthalazin-2(1H)-yl]ethoxy]benzyl]-3-phenyl-1H-pyrazol-4-yl]propionic acid]
23 | 137 to 138 °C | O=C(O)CCc1cn(Cc2ccc(OCc3csc(-c4cnccn4)n3)cc2)cc1-c1ccccc1 [Example 16, 3-[4-phenyl-1-[4-[2-(2-pyrazinyl)-4-thiazolylmethoxy]benzyl]-3-pyrrolyl]propionic acid]
24 | 158 to 159 °C | Cc1ncccc1COc1ccc(Cn2cc(CCC(=O)O)c(-c3ccccc3)c2)cc1 [Example 26, 3-[1-[4-(2-methyl-3-pyridylmethoxy)benzyl]-4-phenyl-3-pyrrolyl]propionic acid]
25 | 160 to 161 °C | CCOc1nn(Cc2ccc(OCc3cn4c(-c5ccccc5)cccc4n3)cc2)cc1CCC(=O)O [Example 232, 3-[3-ethoxy-1-[4-(5-phenylimidazo[1,2-a]pyridin-2-ylmethoxy)benzyl]-1H-pyrazol-4-yl]propionic acid]
